Measurements published in PubChem BioAssay (NCI).
“And” between values parts separate entries of the source, which are not always exact repeats. Equal entries are not always repeated.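 Growth conditions: 96-well plates. Treatment: test compound, 48 hours, 5 concentrations. Analysis: linear interpolation between bracketing concentrations; unreached endpoints set to highest concentration. Here, GI50 denotes the concentration required for 50% inhibition of growth. The concentration for full growth arrest is given as TGI.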

How the values were obtained:
Test in all cases: NCI tumour cell line growth inhibition, 48 h
HOP-92 NSCLC = tested on: HOP-92 NSCLC
MALME-3M melanoma = tested on: MALME-3M melanoma
UACC-257 melanoma = tested on: UACC-257 melanoma
DLD-1 colon = tested on: DLD-1 colon
CCRF-CEM leukemia = tested on: CCRF-CEM leukemia
SNB-78 CNS = tested on: SNB-78 CNS
SN12K1 renal = tested on: SN12K1 renal
SK-OV-3 ovarian = tested on: SK-OV-3 ovarian
COLO 205 colon = tested on: COLO 205 colon
ACHN renal = tested on: ACHN renal
HOP-18 NSCLC = tested on: HOP-18 NSCLC
MCF7 breast = tested on: MCF7 breast
IGROV1 ovarian = tested on: IGROV1 ovarian
SR leukemia = tested on: SR leukemia
DU-145 prostate = tested on: DU-145 prostate
HL-60(TB) leukemia = tested on: HL-60(TB) leukemia
BT-549 breast = tested on: BT-549 breast
HOP-62 NSCLC = tested on: HOP-62 NSCLC
SF-539 CNS = tested on: SF-539 CNS
UACC-62 melanoma = tested on: UACC-62 melanoma
A549 NSCLC = tested on: A549 NSCLC
SN12C renal = tested on: SN12C renal
T-47D breast = tested on: T-47D breast
OVCAR-5 ovarian = tested on: OVCAR-5 ovarian
HCC-2998 colon = tested on: HCC-2998 colon
SK-MEL-5 melanoma = tested on: SK-MEL-5 melanoma
CAKI-1 renal = tested on: CAKI-1 renal
NCI-H23 lung = tested on: NCI-H23 lung
KM12 colon = tested on: KM12 colon
786-0 renal = tested on: 786-0 renal
SF-268 CNS = tested on: SF-268 CNS
NCI-H226 lung = tested on: NCI-H226 lung
KM20L2 colon = tested on: KM20L2 colon
LOX IMVI melanoma = tested on: LOX IMVI melanoma
U251 CNS = tested on: U251 CNS
SNB-75 CNS = tested on: SNB-75 CNS
PC-3 prostate = tested on: PC-3 prostate
OVCAR-8 ovarian = tested on: OVCAR-8 ovarian
SW-620 colon = tested on: SW-620 colon
DMS 273 small cell lung = tested on: DMS 273 small cell lung
MDA-N = tested on: MDA-N
DMS 114 small cell lung = tested on: DMS 114 small cell lung
SF-295 CNS = tested on: SF-295 CNS
OVCAR-3 ovarian = tested on: OVCAR-3 ovarian
HS 578T breast = tested on: HS 578T breast
XF 498 CNS = tested on: XF 498 CNS
M14 melanoma = tested on: M14 melanoma
OVCAR-4 ovarian = tested on: OVCAR-4 ovarian
EKVX NSCLC = tested on: EKVX NSCLC
LXFL 529 NSCLC = tested on: LXFL 529 NSCLC
RPMI-8226 leukemia = tested on: RPMI-8226 leukemia
MDA-MB-435 = tested on: MDA-MB-435
RXF 393 renal = tested on: RXF 393 renal
SNB-19 CNS = tested on: SNB-19 CNS
M19-MEL melanoma = tested on: M19-MEL melanoma
SK-MEL-28 melanoma = tested on: SK-MEL-28 melanoma
MOLT-4 leukemia = tested on: MOLT-4 leukemia
NCI-H522 lung = tested on: NCI-H522 lung
P388 leukemia = tested on: P388 leukemia
A498 renal = tested on: A498 renal
TK-10 renal = tested on: TK-10 renal
HCT-15 colon = tested on: HCT-15 colon
HCT-116 colon = tested on: HCT-116 colon
NCI-H460 lung = tested on: NCI-H460 lung
SK-MEL-2 melanoma = tested on: SK-MEL-2 melanoma
K-562 leukemia = tested on: K-562 leukemia
MDA-MB-231 breast = tested on: MDA-MB-231 breast
P388/ADR leukemia = tested on: P388/ADR leukemia

## CN(C)CC1CCCC(CN(C)C)C1=O (stereo unspecified)
HOP-92 NSCLC
  TGI: 2.26 µM
MALME-3M melanoma
  GI50: 0.653 µM and 2.61 µM
  TGI: 1.61 µM and 6.54 µM
UACC-257 melanoma
  TGI: 4.49 µM and 5.8 µM
DLD-1 colon
  TGI: 4.14 µM
CCRF-CEM leukemia
  GI50: 0.155 µM and 0.0588 µM
  TGI: 0.559 µM and 0.21 µM
SNB-78 CNS
  TGI: 10.3 µM
SN12K1 renal
  TGI: 30.4 µM
SK-OV-3 ovarian
  GI50: 17.8 µM and > 44 µM
  TGI: 31.8 µM and > 58.3 µM
COLO 205 colon
  TGI: 3.4 µM and 9.47 µM
ACHN renal
  TGI: 2.92 µM and 3.52 µM
HOP-18 NSCLC
  TGI: 3.32 µM
MCF7 breast
  GI50: 0.575 µM and 3.45 µM
  TGI: 6 µM and > 41.7 µM
IGROV1 ovarian
  TGI: 37.2 µM and 38.4 µM
SR leukemia
  GI50: 0.254 µM and 0.803 µM
  TGI: 1.64 µM
DU-145 prostate
  TGI: 29.4 µM
HL-60(TB) leukemia
  GI50: 0.612 µM and 2.85 µM
  TGI: 2.03 µM and 7.45 µM
BT-549 breast
  GI50: 3.24 µM and 19.4 µM
  TGI: 10.7 µM and 38 µM
HOP-62 NSCLC
  GI50: > 73.1 µM and 20.8 µM
  TGI: > 90.6 µM and 43 µM
SF-539 CNS
  GI50: 11.3 µM and 1.75 µM
  TGI: 21.9 µM and 5.78 µM
UACC-62 melanoma
  GI50: 8.32 µM and 18 µM
  TGI: 18.3 µM and 33.4 µM
A549 NSCLC
  TGI: 48.1 µM and > 63.6 µM
SN12C renal
  GI50: 2.58 µM and 7.36 µM
  TGI: 5.78 µM and 18.4 µM
T-47D breast
  TGI: 4.23 µM and 3.38 µM
OVCAR-5 ovarian
  TGI: 32.7 µM and 33.7 µM
HCC-2998 colon
  TGI: 29.5 µM and 36 µM
SK-MEL-5 melanoma
  TGI: 21 µM and 30.3 µM
CAKI-1 renal
  GI50: 1.39 µM and 0.259 µM
  TGI: 3.12 µM and 0.858 µM
NCI-H23 lung
  GI50: 5.35 µM and 20.7 µM
  TGI: 18.5 µM and 43.4 µM
KM12 colon
  GI50: 6.05 µM and 17.2 µM
  TGI: 16.9 µM and 33.3 µM
786-0 renal
  TGI: 5.94 µM and 4.61 µM
SF-268 CNS
  GI50: 11.5 µM and 23.4 µM
  TGI: 31.7 µM and 65.6 µM
NCI-H226 lung
  GI50: 18.6 µM and > 46.5 µM
  TGI: 35.6 µM and > 69.2 µM
KM20L2 colon
  TGI: 13.2 µM
LOX IMVI melanoma
  GI50: 3.4 µM and 8.45 µM
  TGI: 7.09 µM and 30.3 µM
U251 CNS
  TGI: 23 µM and 34.6 µM
SNB-75 CNS
  TGI: 29.8 µM and 31.1 µM
PC-3 prostate
  GI50: 18.7 µM and 4.98 µM
  TGI: 33.4 µM and 16.9 µM
OVCAR-8 ovarian
  TGI: 5.86 µM and 10.6 µM
SW-620 colon
  GI50: 0.367 µM
  TGI: 0.639 µM and 1.92 µM
DMS 273 small cell lung
  TGI: 26.8 µM
MDA-N
  TGI: 25.6 µM and 28.4 µM
DMS 114 small cell lung
  TGI: 3.87 µM
SF-295 CNS
  GI50: 19.3 µM and > 100 µM
  TGI: 35.7 µM and > 100 µM
OVCAR-3 ovarian
  TGI: 5.47 µM and 3.64 µM
HS 578T breast
  GI50: 3.26 µM and 26.5 µM
  TGI: > 100 µM and 80.3 µM
XF 498 CNS
  TGI: 3.69 µM
M14 melanoma
  GI50: 1.48 µM and 6.11 µM
  TGI: 3.03 µM and 11.7 µM
OVCAR-4 ovarian
  GI50: 1.89 µM and 7.01 µM
  TGI: 3.51 µM and 18.5 µM
EKVX NSCLC
  TGI: 17.8 µM and 14.1 µM
LXFL 529 NSCLC
  TGI: 0.998 µM
RPMI-8226 leukemia
  GI50: 0.125 µM and 0.458 µM
  TGI: 1.53 µM and 2.36 µM
MDA-MB-435
  GI50: 19.6 µM and 8.54 µM
  TGI: 39.1 µM and 23.8 µM
RXF 393 renal
  TGI: 3.29 µM and 3.25 µM
SNB-19 CNS
  TGI: 68 µM and > 65.4 µM
M19-MEL melanoma
  TGI: 7.24 µM
SK-MEL-28 melanoma
  GI50: 2.17 µM and 18.3 µM
  TGI: 5.21 µM and 33.8 µM
MOLT-4 leukemia
  GI50: 0.293 µM
  TGI: 1.14 µM and 2.08 µM
NCI-H522 lung
  GI50: 0.179 µM and 1.06 µM
  TGI: 0.443 µM and 3.46 µM
P388 leukemia
  TGI: 2.13 µM
A498 renal
  GI50: 19.1 µM and > 100 µM
  TGI: 34.5 µM and > 100 µM
TK-10 renal
  GI50: 2.81 µM and 0.861 µM
  TGI: 7.88 µM and 2.63 µM
HCT-15 colon
  GI50: 1.28 µM and 8.54 µM
HCT-116 colon
  GI50: 1.66 µM and 3.36 µM
  TGI: 3.64 µM and 7.98 µM
NCI-H460 lung
  TGI: 38.5 µM and 33.8 µM
SK-MEL-2 melanoma
  TGI: 20.6 µM and 35.2 µM
K-562 leukemia
  GI50: 0.119 µM and 0.677 µM
  TGI: 0.601 µM
MDA-MB-231 breast
  GI50: 3.9 µM and 16 µM
  TGI: 13 µM and 31.2 µM
P388/ADR leukemia
  TGI: 0.226 µM
